Test results from patent publication US20030181353A1, “Composition & use as analgesic, anti-inflammatory, wound healing agent, for treatment of heart conditions, assessment of heart function & tissue & cell protection & healing & reperfusion, mood disorders & symptoms & sequelae of menopause & for inducing unconsciousness, sleep & anesthesia” (priority 1998, published 2003).

Test system: Intracellular Adenosine
Format: in vivo, rat

Structure (SMILES): Nc1nc(=O)c2c([nH]1)NCC(CNc1ccc(C(=O)N[C@@H](CCC(=O)O)C(=O)O)cc1)N2C=O (mixture of isomers) [Follinic Acid (F.A.), folinic acid]
- Adenosine levels in the heart, lung and brain (rat, in vivo, po): dramatic increase in adenosine levels
- Effect of co-administration of folinic acid on adenosine depletion (rats, co-administered with the depleting agent): completely abrogated adenosine depletion
- Effect of folinic acid administered alone on adenosine levels (rats, folinic acid alone, all organs studied): increase in adenosine levels for all organs studied
